According to a melting point compilation (Tetko et al.; mined from patent text by program, amines drawn as free bases though some values may be those of a salt):

| SMILES | melting point |
| --- | --- |
| CC#Cc1ccc(NC(=O)c2cccnc2NCc2ccc(OC)nc2)cc1C(F)(F)F | 109 to 111 °C |
| CC1CC(C)CC2(C1)OC(N)=NC2=O (stereo unspecified) | 276 to 281 °C |
| CCC(=O)Nc1c(C(=O)c2cccc(Cl)c2)[nH]c2cc(Cl)ccc12 | 129 to 130 °C |
| CCCCCCCCOc1cnc(-c2ccc(OC(=O)[C@H]3CCCO3)cc2)nc1 | 90 °C |
| CCn1ncc2c(N)c3c(nc21)CCc1ccccc1C3=O | 132 to 133 °C |
| Cc1ccc(-c2ccccc2C(N)=O)cc1 | 128 to 130 °C |
| CCCCc1nc(CCCC)n(Cc2ccc(-c3ccccc3-c3nnn[nH]3)cn2)n1 | 136 to 138 °C |
| Cn1c(C(F)(F)F)cc(=O)n(-c2cc(OC(=O)CC#N)c(Cl)cc2F)c1=O | 157 to 160 °C |
| CC(C)(C)c1cc(NC(=O)c2ccccc2)cc(C(C)(C)C)c1O | 209 to 210 °C |
| Nc1sccc1C(=O)c1ccccc1 | 150 to 152 °C |
| CCOC(=O)CSc1nc(Cl)cc(NCc2ccc(F)cc2)n1 | 70 to 75 °C |
| Cc1cc(C)cc(-c2nc(NC(=O)C3CCCC3)sc2-c2ccncc2)c1 | 275 to 278 °C |
| COCc1noc(-c2ncn3c2[C@@H]2CCCN2C(=O)c2c(Cl)cccc2-3)n1 | 168 to 170 °C |
| COC(=O)Cc1cccc(NC(=O)NCC(=O)N2[C@@H](C(=O)N3CCCC3)C[C@H](S(=O)(=O)c3ccccc3)[C@H]2c2ccccc2F)c1 (racemic) | 156 °C |
| COC(=O)c1ccc(CC(C)(C)NCC(O)c2ccccc2)cc1 (stereo unspecified) | 125 °C |
| CN(C)CCC1CCCCN1C1c2ccccc2Oc2ccccc21 (stereo unspecified) | 64 to 67 °C |
| Cn1cc(-c2ccc(Br)cc2)c(=O)c(-c2cccc(C(F)(F)F)c2)c1 | 144 to 146 °C |
| CCCCOC(=O)NNc1n[nH]c2cc(Cl)ccc12 | 150 to 152 °C |
| O=C(Nc1ccc(Oc2ccccc2)cc1)N1CCN(c2ccnc3c(Cl)cccc23)CC1 | 174 to 175 °C |
| O=C1CCN(C(=O)c2ccc3nonc3c2)CC1 | 136 to 139 °C |
| O=Cc1ccn(C2=CC3=C(CC2)CCc2[nH]c(=O)c(=O)[nH]c23)c1 | > 250 °C |
| COC(=O)C(C)Oc1ccc(NC(=O)OCCOC(=O)Nc2ccc(OC(C)C(=O)OC)cc2)cc1 (stereo unspecified) | 98 to 100 °C |
| CC(=O)N(C)C(=O)Oc1cccc2c1OCO2 | 48 to 50 °C |
| CCCCCCCCSC(CCCCC)CCn1ccnc1 (stereo unspecified) | 105 to 108 °C |
| COc1ccc2c(c1)c(SC(C)C)c(C(N)=O)n2C | 122 to 124 °C |
| C[C@@H](Cn1ncc2ccc3oc(C(N)=O)nc3c21)N=[N+]=[N-] | 162 to 164 °C |

| SMILES | melting point |
| --- | --- |
| COC(=O)C(C)Oc1ccc(Oc2ncc(Cl)cc2F)cc1 (stereo unspecified) | 58 to 59 °C |
| CCc1noc(NC(=O)N2CCN(c3ccnc(-c4cccc(F)c4F)n3)CC2)c1C | 188 to 189 °C |
| O=C(O)CN1C(=O)C(=Cc2ccc3ccccc3c2)SC1=S | 257 to 264 °C |
| O=c1c2ccccc2n(CCc2ccccc2)c(=O)n1S(=O)(=O)c1ccc(Cl)cc1 | 200 to 202 °C |
| O=C(NCCO)c1cncc(-c2cccc3nn(Cc4cccc(C(F)(F)F)c4)cc23)c1 | 185 to 186 °C |
| Nc1ccc(CC(NC(=O)CCCCCCCCCCCNC(=O)C(c2ccccc2)c2ccccc2)c2ccccc2)cc1 (stereo unspecified) | 107 to 114 °C |
| Cc1ccc(C(O)c2c(OCc3ccccc3)c(=O)ccn2CCO)cc1 (stereo unspecified) | 206 to 207 °C |
| N#CSc1sc(NC(=O)c2cccc(C(F)(F)F)c2)nc1C(F)(F)F | 167 to 168 °C |
| CCCc1nc2c(N)nc3ccccc3c2n1CCOCCCCl | 131 to 132 °C |
| CC1(C)OC(=S)Nc2c(Br)cc(-c3cc(F)cc(C#N)c3)cc21 | 219 to 220 °C |
| COC(=O)NCCc1cccc(-c2ccnc3c(C#N)cnn23)c1 | 162 to 164 °C |
| N#Cc1ccc(N2CCN(c3ccncc3)CC2)cc1 | 155 to 158 °C |
| Cc1ccc(-c2cncnc2O)cc1 | 189 to 192 °C |
| CC[C@H](NC(=O)c1cc(F)ccc1NS(=O)(=O)c1cccc2cccnc12)c1ccccc1 | 163 °C |
| CCCc1c(OCC(O)COc2cccc([N+](=O)[O-])c2C#N)ccc(C(C)=O)c1O (stereo unspecified) | 117 to 119 °C |
| CCOC(=O)CCNc1ncccc1NC(=O)c1ccccc1Cl | 90 to 92 °C |
| COc1ccc(C(=O)Nc2cccnc2)cc1NC(=S)Nc1cccc(C(=O)O)c1 | 191 to 192 °C |
| CCc1c2nc(-c3cc(S(C)(=O)=O)ccc3OCC(C)C)[nH]c(=O)c2nn1C1CCN(C)CC1 | 292 to 295 °C |
| Cc1ccc(C=Nc2ccc(Cl)cc2Cl)c(C)c1 | 102 to 106 °C |
| CC1OC(C)C(C(=O)O)C1=O (stereo unspecified) | 55 to 57 °C |
| COc1ccccc1N1CCN(CC(O)COc2cc(C)c(OCc3ccccc3)c(C)c2)CC1 (stereo unspecified) | 93 to 94 °C |
| CN1CCN(c2cccc3c2C[C@H](NS(C)(=O)=O)CC3)CC1 | 135 to 137 °C |
| N#Cc1c(N2CCN(C(=O)c3ccco3)CC2)c2cc(Cl)cnc2n(Cc2ccccc2)c1=O | 196 °C |
| Cc1cccc(C)c1CNc1cc(C(N)=O)cc2c1nc(C)n2C | 272 °C |
| CCOc1cc(N)ccn1 | 88 to 89 °C |
| CC(C)(C)OC(=O)NNC(=O)c1ccnc2[nH]c(CCc3ccccc3)cc12 | 187 to 188 °C |

| SMILES | melting point |
| --- | --- |
| Cc1cc(S(=O)(=O)N2CCCCC2)c(O)c2c1CCC2=O | 188 to 189 °C |
| CCCCSc1cc(C(=O)OCC)cc(S(N)(=O)=O)c1Cc1ccccc1 | 120 to 122 °C |
| CCNC(=S)NS(=O)(=O)c1cc2c(cc1OC)OCCC2CNC(=O)N1CC(C)=C(CC)C1=O (stereo unspecified) | 147 °C |
| Fc1ccc(-c2ncn(CCN3CCOCC3)c2-c2ccncc2)cc1 | 114 to 115 °C |
| Cc1cc(C)c2c(c1O)C(N)C(C1CCCCC1)C2 (stereo unspecified) | 125 to 126 °C |
| CCc1ccc2c(c1)CC(NC(=O)C(F)(F)F)C2 (stereo unspecified) | 112 to 114 °C |
| COc1ccc(-c2ncnnc2-c2ccc(OC)cc2)cc1 | 118 to 120 °C |
| Cc1c(O)cc(OC(=O)Cc2ccc(CC(=O)Oc3cc(O)c(C)c(O)c3)cc2)cc1O | 276 to 278 °C |
| CCN1C(=O)C(C)(C)C(=O)N(C)c2cc(OCCCn3cc(-c4ccc(OC)nc4)c(=O)c4ccccc43)ccc21 | 159 to 161 °C |
| CNC(=S)Nc1cc(OC)c(-c2ccc(C[C@H](NC(=O)c3c(Cl)cccc3Cl)C(=O)O)cc2)c(OC)c1 | 197 to 198 °C |
| O=C(NCc1ccc(Cl)cc1)c1cnc2c(Cl)cccc2c1O | 279 to 281 °C |
| CCCCN(Cc1ccc(-c2ccccc2C(=N)NO)cc1)c1ncccc1C(=O)OCC | 181 to 182 °C |
| COc1ccc(C(C)(C)C)cc1C(N)=NO | 132 to 133 °C |
| CN(C)C1(c2ccccc2)CCC(c2cc3ccccc3n2S(=O)(=O)c2ccccc2)CC1 (stereo unspecified) | 139 to 142 °C |
| Ic1cccc2c1CCOC2 | 54 to 56 °C |
| COc1cccc(N(CC(=O)N(C)c2ccccc2)C(=O)CN2C(=O)c3ccccc3C2=O)c1 | 137 °C |
| Cc1cccc2c1CC(n1ccnc1C(N)=O)C2=O (stereo unspecified) | 160 °C |
| Cc1c(C)c2c(c(C)c1OCc1ccccc1)CC(C)(CN1CCN(c3ccccc3)CC1)O2 (stereo unspecified) | 120 to 121 °C |
| CC(C)(C)OC(=O)N1C[C@@H](c2c[nH]c3ccccc23)[C@H](c2cn3c4c(cccc24)CCC3)C1 | 239 to 240 °C |
| Cc1cccc2c(=O)[nH]c(C3CCN(CCCO)CC3)cc12 | 197 to 199 °C |
| N#CCC(CC#N)c1cccc(OCc2ccccc2)c1 | 140 to 143 °C |
| Cc1ccc(COC(=O)NC(CO)Cc2ccc(O)cc2)cc1 (stereo unspecified) | 128 to 129 °C |
| COc1cc(C(C)=O)ccc1OCCCCN1CCN(c2n[nH]c3cc(Cl)ccc23)CC1 | 189 to 191 °C |
| CCCCSc1cc(N)c([N+](=O)[O-])cc1N | 129 °C |
| CCCCC(=O)c1cn(C(c2ccccc2)(c2ccccc2)c2ccccc2)cn1 | 115 to 118 °C |
| c1nc(NCCN2CCOCC2)c2sc3nc(N4CCOCC4)c4c(c3c2n1)CCOC4 | 184 to 185 °C |

| SMILES | melting point |
| --- | --- |
| CNC(=O)Oc1ccccc1OC | 90 to 92 °C |
| CNC(=O)N(O)Cc1cccc(Nc2ccccc2C(=O)OC)c1C | 173 to 175 °C |
| CCOC(=O)Nc1ccc(OCc2ccc(Cl)nc2)cc1F | 139 °C |
| CC(C)NC(=O)Nc1ccc2c(c1Cl)C(c1ccccc1F)=NCC(=O)N2C | 130 to 140 °C |
| Nc1ncc(-c2ccc(=O)[nH]n2)c(-c2cccc(F)c2)n1 | 249 °C |
| CC(C)(C)COC(=O)COc1ccc(C(=O)CN2CCN(c3ccncc3)CC2)cc1 | 88 to 90 °C |
| O=c1oc(=O)n(C2CC2)c2cc(F)c(F)cc12 | 138 to 139 °C |
| Cc1noc(C)c1-c1cn(Cc2ccccc2)c(=O)c2cccnc12 | 192 to 195 °C |
| CCCC1=C(Cl)C(=O)c2oc(Cc3ccc(OC)c(Cl)c3)c(C)c2C1=O | 134 to 136 °C |
| O=C(O)c1cc(NCc2ccccc2)c(Nc2ccccc2)c(S(=O)(=O)Nc2ccccc2)c1 | 243 °C |
| CCc1cc2c(O)c(C#N)c(=O)oc2cc1C | 224 to 226 °C |
| O=C(O)CCCCCCC(O)C(=O)O (stereo unspecified) | 86 to 92 °C |
| CCC(CC)(COc1nn2ccnc2cc1C)CS(N)(=O)=O | 210 to 211 °C |
| CCOC(=O)c1c(C(C)(C)O)nc(SCC)n1Cc1ccc(-c2ccccc2-c2nnn[nH]2)cc1 | 185 to 188 °C |
| CC(C(=S)c1cccc(NC=O)n1)S(C)=O (stereo unspecified) | 130 to 132 °C |
| COc1ccc(-n2c(CF)nc3ccc(N)cc3c2=O)c(C)c1 | 200 to 202 °C |
| Cc1sc(C=O)c(C)c1C | 45 to 46 °C |
| CC(O)C1(c2cccc(Cl)c2)CCCN(C)CC1 (stereo unspecified) | 123 to 124 °C |
| CCOC(=O)CC1CN=C(c2cc3cccc(N(C)S(=O)(=O)c4cccs4)c3[nH]2)S1 (stereo unspecified) | 101 to 102 °C |
| Cc1nn(Cc2ccc(OCc3nc(-c4ccccc4)oc3C)cc2)c(C)c1CCC(=O)O | 170 to 171 °C |
| Cc1ccc(-c2cc(-c3ccccc3)n[nH]2)cc1 | 175 °C |
| CC1(C)COC(C(=O)O)OC1 | 58 to 60 °C |
| O=C(Cn1nnc2cccnc21)Nc1ccc(-n2nc(C(F)(F)F)cc2C2CC2)cc1 | 206 to 209 °C |
